# Key:
# HT-22 [1] = experiment: Neuroprotective activity against glutamate-induced neuronal cell damage in mouse HT22 cells assessed as cell survival rate at 1 uM after 24 hrs by MTT assay (reference value: 12.49 to 43.44%); type: functional; details: HT-22, 24 h, read-out: Survival
# HT-22 [2] = experiment: Neuroprotective activity against glutamate-induced neuronal cell damage in mouse HT22 cells assessed as cell survival rate at 10 uM after 24 hrs by MTT assay (reference value: 12.49 to 43.44%); type: functional; details: HT-22, 24 h, read-out: Survival
# HT-22 [3] = experiment: Neuroprotective activity against glutamate-induced neuronal cell damage in mouse HT22 cells assessed as cell survival rate at 50 uM after 24 hrs by MTT assay (reference value: 12.49 to 43.44%); type: functional; details: HT-22, 24 h, read-out: Survival
# HT-22 [4] = experiment: Neuroprotective activity against glutamate-induced neuronal cell damage in mouse HT22 cells assessed as cell survival rate at 100 uM after 24 hrs by MTT assay (reference value: 12.49 to 43.44%); type: functional; details: HT-22, 24 h, read-out: Survival
# [5] = Cytotoxicity against mouse HT22 cells assessed as cell survival rate at 100 uM after 24 hrs by MTT assay; type: toxicity, HT-22; details: read-out: Survival
# HT-22 [6] = experiment: Neuroprotective activity against glutamate-induced neuronal cell damage in mouse HT22 cells assessed as increase in cell viability at 1 to 100 uM after 24 hrs by MTT assay relative to glutamate; type: functional
# Mus musculus [7] = experiment: Protection against focal cerebral ischemia in ICR mouse model of […] assessed as infarct volume of […] at 100 mg/kg, ip dosed 3 hrs post reperfusion measured 48 hrs post MCAO by TTC staining based assay (reference value: 62.75%); type: functional
# Mus musculus [8] = experiment: Protection against focal cerebral ischemia in ICR mouse model of […] assessed as infarct volume of striatum at 100 mg/kg, ip dosed 3 hrs post reperfusion measured 48 hrs post MCAO by TTC staining based assay (reference value: 56.18%); type: functional
# Mus musculus [9] = experiment: Protection against focal cerebral ischemia in ICR mouse model of […] assessed as infarct volume of hemisphere at 100 mg/kg, ip dosed 3 hrs post reperfusion measured 48 hrs post MCAO by TTC staining based assay (reference value: 44.98%); type: functional
# Mus musculus [10] = experiment: Protection against focal cerebral ischemia in ICR mouse model of […] assessed as reduction in infarct volume administered ip 3 hrs post reperfusion measured 48 hrs post MCAO by TTC staining based assay; type: functional
# Rattus norvegicus = experiment: Protection against focal cerebral ischemia in Wistar rat model of […] assessed as reduction in infarction volume administered ip at 2 hrs post reperfusion measured 3 days post MCAO; type: functional
SMILES,viability at 1 µM (HT-22 [1]),viability at 10 µM (HT-22 [2]),viability at 50 µM (HT-22 [3]),viability at 100 µM (HT-22 [4]),"viability at 24 h, 100 µM [5]",fold change (FC) (HT-22 [6]),Activity (Mus musculus [7]),Activity (Mus musculus [8]),Activity (Mus musculus [9]),MED (Mus musculus [10]),MED (Rattus norvegicus)
O=C(OCCCCCOc1ccc(-c2cc(=S)ss2)cc1)c1cccnc1,52.9%,92.5%,93.3%,82.2%,100%,,,,,,
O=C(OCCCCCCCCCOc1ccc(-c2cc(=S)ss2)cc1)c1cccnc1,108%,101%,80.6%,70.4%,70.4%,,,,,,
O=C(CNC(=O)c1cccnc1)OCCCCOc1ccc(-c2cc(=S)ss2)cc1,69.2%,87.4%,100%,99%,100%,,,,,,
O=C(OCCOc1ccc(-c2cc(=S)ss2)cc1)c1cccnc1,57.9%,80.8%,91.5%,102%,100%,,,,,,
O=C(N[C@@H](Cc1ccccc1)C(=O)OCCCCOc1ccc(-c2cc(=S)ss2)cc1)c1cccnc1,64.7%,87.7%,101%,101%,100%,,,,,,
O=C(Oc1ccc(-c2cc(=S)ss2)cc1)c1cccnc1,43.3%,64.2%,82.4%,78.3%,100%,,,,,,
O=C(OCCCCOc1ccc(-c2cc(=S)ss2)cc1)c1cccnc1,66.9%,94.8%,87.9%,93.5%,52.9%,,,,,,
O=C(OCCCCCCOc1ccc(-c2cc(=S)ss2)cc1)c1cccnc1,82.6%,83.2%,78.2%,71.3%,100%,6,38.01%,23.04%,25.93%,100 mg/kg,
O=C(OCCCCCCCCOc1ccc(-c2cc(=S)ss2)cc1)c1cccnc1,82.5%,78%,76.3%,82.3%,100%,,,,,,
C[C@H](NC(=O)c1cccnc1)C(=O)OCCCCOc1ccc(-c2cc(=S)ss2)cc1,68.7%,75.5%,77.9%,71.1%,100%,,,,,,
CC(C)[C@H](NC(=O)c1cccnc1)C(=O)OCCCCOc1ccc(-c2cc(=S)ss2)cc1,73.3%,72.4%,70.8%,68.1%,68%,,,,,,
O=C(OCCCOc1ccc(-c2cc(=S)ss2)cc1)c1cccnc1,33.7%,87.2%,93.4%,89.8%,100%,,,,,,
Oc1ccc(-c2cc(=S)ss2)cc1,33.4%,52.2%,104%,76.4%,,,,,,,
NC(=O)c1cccnc1 [NIACINAMIDE],,,,,,,,,,,500 mg/kg
O=C(O)c1cccnc1 [NIACIN],56.2%,58.9%,63.8%,75.3%,,,,,,,
